Calls of active or inactive are those of the source. No rule for the calls is given here.

The subject of the series is CCRIS mutagenicity, Ames/micronucleus/aberration tests. Nature of the series: CCRIS mutagenicity studies.
The mark [1] stands for this setting: Test System: AMES SALMONELLA TYPHIMURIUM, Strain/Indicator: TA98, Metabolic Activation: NONE, Method: STANDARD PLATE.
The mark [2] stands for this setting: Test System: AMES SALMONELLA TYPHIMURIUM, Strain/Indicator: TA98, Metabolic Activation: RAT, LIVER, S-9, AROCLOR 1254, Method: STANDARD PLATE.
Setting [3] is: Test System: AMES SALMONELLA TYPHIMURIUM, Strain/Indicator: TA100, Metabolic Activation: NONE, Method: STANDARD PLATE.
The mark [4] stands for this setting: Test System: AMES SALMONELLA TYPHIMURIUM, Strain/Indicator: TA100, Metabolic Activation: RAT, LIVER, S-9, AROCLOR 1254, Method: STANDARD PLATE.

In the case of `B#B`, the mutagenic call (Test System: AMES SALMONELLA TYPHIMURIUM, Strain/Indicator: TA98, Metabolic Activation: HAMSTER, LIVER, S-9, AROCLOR 1254 (10%), Method: PREINCUBATION) was “inactive; negative”; the mutagenic call (Test System: AMES SALMONELLA TYPHIMURIUM, Strain/Indicator: TA98, Metabolic Activation: NONE, Method: GAS EXPOSURE) was “active; positive”; the mutagenic call (Test System: AMES SALMONELLA TYPHIMURIUM, Strain/Indicator: TA98, Metabolic Activation: NONE, Method: PREINCUBATION) is “inactive; negative”; the mutagenic call (Test System: AMES SALMONELLA TYPHIMURIUM, Strain/Indicator: TA98, Metabolic Activation: RAT LIVER S-9, PHENOBARBITAL AND BETA-NAPHTHOFLAVONE, Method: GAS EXPOSURE) is “active; positive”; the mutagenic call (Test System: AMES SALMONELLA TYPHIMURIUM, Strain/Indicator: TA98, Metabolic Activation: RAT, LIVER, S-9, AROCLOR 1254 (10%), Method: PREINCUBATION) is “inactive; negative”; the mutagenic call (Test System: AMES SALMONELLA TYPHIMURIUM, Strain/Indicator: TA98, Metabolic Activation: RAT, LIVER, S-9, PHENOBARBITAL AND 5,6-BENZOFLAVONE, Method: GAS EXPOSURE) was “active; positive”. Also, the mutagenic call runs as follows: (Test System: AMES SALMONELLA TYPHIMURIUM, Strain/Indicator: TA100, Metabolic Activation: HAMSTER, LIVER, S-9, AROCLOR 1254 (10%), Method: PREINCUBATION) “inactive; negative”; (Test System: AMES SALMONELLA TYPHIMURIUM, Strain/Indicator: TA100, Metabolic Activation: NONE, Method: PREINCUBATION) “inactive; negative”; (Test System: AMES SALMONELLA TYPHIMURIUM, Strain/Indicator: TA100, Metabolic Activation: RAT LIVER S-9, PHENOBARBITAL AND BETA-NAPHTHOFLAVONE, Method: GAS EXPOSURE) “active; positive”; (Test System: AMES SALMONELLA TYPHIMURIUM, Strain/Indicator: TA100, Metabolic Activation: RAT, LIVER, S-9, AROCLOR 1254 (10%), Method: PREINCUBATION) “inactive; negative”; (Test System: AMES SALMONELLA TYPHIMURIUM, Strain/Indicator: TA100, Metabolic Activation: RAT, LIVER, S-9, PHENOBARBITAL AND 5,6-BENZOFLAVONE, Method: GAS EXPOSURE) “active; positive”; (Test System: AMES SALMONELLA TYPHIMURIUM, Strain/Indicator: TA1535, Metabolic Activation: HAMSTER, LIVER, S-9, AROCLOR 1254 (10%), Method: PREINCUBATION) “inactive; negative”. For the same compound, the mutagenic call was “inactive; negative” (Test System: AMES SALMONELLA TYPHIMURIUM, Strain/Indicator: TA1535, Metabolic Activation: NONE, Method: GAS EXPOSURE); “inactive; negative” (Test System: AMES SALMONELLA TYPHIMURIUM, Strain/Indicator: TA1535, Metabolic Activation: NONE, Method: PREINCUBATION); “inactive; negative” (Test System: AMES SALMONELLA TYPHIMURIUM, Strain/Indicator: TA1535, Metabolic Activation: RAT LIVER S-9, PHENOBARBITAL AND BETA-NAPHTHOFLAVONE, Method: GAS EXPOSURE); “inactive; negative” (Test System: AMES SALMONELLA TYPHIMURIUM, Strain/Indicator: TA1535, Metabolic Activation: RAT, LIVER, S-9, AROCLOR 1254 (10%), Method: PREINCUBATION); “inactive; negative” (Test System: AMES SALMONELLA TYPHIMURIUM, Strain/Indicator: TA1535, Metabolic Activation: RAT, LIVER, S-9, PHENOBARBITAL AND 5,6-BENZOFLAVONE, Method: GAS EXPOSURE); “inactive; negative” (Test System: AMES SALMONELLA TYPHIMURIUM, Strain/Indicator: TA1537, Metabolic Activation: HAMSTER, LIVER, S-9, AROCLOR 1254 (10%), Method: PREINCUBATION). Further, the mutagenic call was “inactive; negative” (Test System: AMES SALMONELLA TYPHIMURIUM, Strain/Indicator: TA1537, Metabolic Activation: NONE, Method: GAS EXPOSURE); “inactive; negative” (Test System: AMES SALMONELLA TYPHIMURIUM, Strain/Indicator: TA1537, Metabolic Activation: NONE, Method: PREINCUBATION); “inactive; negative” (Test System: AMES SALMONELLA TYPHIMURIUM, Strain/Indicator: TA1537, Metabolic Activation: RAT LIVER S-9, PHENOBARBITAL AND BETA-NAPHTHOFLAVONE, Method: GAS EXPOSURE); “inactive; negative” (Test System: AMES SALMONELLA TYPHIMURIUM, Strain/Indicator: TA1537, Metabolic Activation: RAT, LIVER, S-9, AROCLOR 1254 (10%), Method: PREINCUBATION); “inactive; negative” (Test System: AMES SALMONELLA TYPHIMURIUM, Strain/Indicator: TA1537, Metabolic Activation: RAT, LIVER, S-9, PHENOBARBITAL AND 5,6-BENZOFLAVONE, Method: GAS EXPOSURE); “inactive; negative” (Test System: E. COLI, Strain/Indicator: WP2 UVRA, Metabolic Activation: NONE, Method: GAS EXPOSURE). Further, the mutagenic call runs as follows: (Test System: E. COLI, Strain/Indicator: WP2 UVRA, Metabolic Activation: RAT, LIVER, S-9, PHENOBARBITAL AND 5,6-BENZOFLAVONE, Method: GAS EXPOSURE) “active; positive”; (Test System: E.COLI, Strain/Indicator: WP2UVRA, Metabolic Activation: NONE, Method: GAS EXPOSURE) “inactive; negative”; (Test System: E.COLI, Strain/Indicator: WP2UVRA, Metabolic Activation: RAT LIVER S-9, PHENOBARBITAL AND BETA-NAPHTHOFLAVONE, Method: GAS EXPOSURE) “active; positive”.

Take `CC(=O)C1(c2ccccc2)CCNCC1`: the mutagenic call reads like this: (Test System: AMES SALMONELLA TYPHIMURIUM, Strain/Indicator: TA98, Metabolic Activation: HAMSTER, LIVER, S-9, AROCLOR 1254, Method: STANDARD PLATE) “inactive; negative”; under setting [1], “inactive; negative”; under setting [2], “inactive; negative”; (Test System: AMES SALMONELLA TYPHIMURIUM, Strain/Indicator: TA100, Metabolic Activation: HAMSTER, LIVER, S-9, AROCLOR 1254, Method: STANDARD PLATE) “inactive; negative”; under setting [3], “inactive; negative”; under setting [4], “inactive; negative”. For the same compound, the mutagenic call is “inactive; negative” (Test System: AMES SALMONELLA TYPHIMURIUM, Strain/Indicator: TA1535, Metabolic Activation: HAMSTER, LIVER, S-9, AROCLOR 1254, Method: STANDARD PLATE); “inactive; negative” (Test System: AMES SALMONELLA TYPHIMURIUM, Strain/Indicator: TA1535, Metabolic Activation: NONE, Method: STANDARD PLATE); “inactive; negative” (Test System: AMES SALMONELLA TYPHIMURIUM, Strain/Indicator: TA1535, Metabolic Activation: RAT, LIVER, S-9, AROCLOR 1254, Method: STANDARD PLATE); “inactive; negative” (Test System: AMES SALMONELLA TYPHIMURIUM, Strain/Indicator: TA1537, Metabolic Activation: HAMSTER, LIVER, S-9, AROCLOR 1254, Method: STANDARD PLATE); “inactive; negative” (Test System: AMES SALMONELLA TYPHIMURIUM, Strain/Indicator: TA1537, Metabolic Activation: NONE, Method: STANDARD PLATE); “inactive; negative” (Test System: AMES SALMONELLA TYPHIMURIUM, Strain/Indicator: TA1537, Metabolic Activation: RAT, LIVER, S-9, AROCLOR 1254, Method: STANDARD PLATE). Further, the mutagenic call by setting is: (Test System: AMES SALMONELLA TYPHIMURIUM, Strain/Indicator: TA1538, Metabolic Activation: HAMSTER, LIVER, S-9, AROCLOR 1254, Method: STANDARD PLATE) “inactive; negative”; (Test System: AMES SALMONELLA TYPHIMURIUM, Strain/Indicator: TA1538, Metabolic Activation: NONE, Method: STANDARD PLATE) “inactive; negative”; (Test System: AMES SALMONELLA TYPHIMURIUM, Strain/Indicator: TA1538, Metabolic Activation: RAT, LIVER, S-9, AROCLOR 1254, Method: STANDARD PLATE) “inactive; negative”; (Test System: MOUSE LYMPHOMA, Strain/Indicator: L5178Y (TK+/TK-), Metabolic Activation: NONE, Method: SUSPENSION/PLATE) “inactive; negative. reevaluation of results: negative”; (Test System: MOUSE LYMPHOMA, Strain/Indicator: L5178Y (TK+/TK-), Metabolic Activation: RAT, LIVER, S-9, AROCLOR 1254, Method: SUSPENSION/PLATE) “inactive; negative. reevaluation of results: inconclusive”.

Turning to `Cc1ccc2nc3c4c(ccc3c(CO)c2c1)[C@H](O)[C@@H](O)C=C4`, the mutagenic call under setting [4] is “active; positive”.

For the compound `Nc1ccccc1SCSc1ccccc1N`, the mutagenic call is, setting by setting: under setting [1], “inactive; negative”; under setting [2], “inactive; negative”; under setting [3], “inactive; negative”; under setting [4], “active; positive”.

As to `c1ccc2c(c1)-c1ccccc1C1OC21` (stereo unspecified), under setting [1], the mutagenic call is “active; positive”.

As to `Clc1ccnc2ccccc12`, under “Test System: AMES SALMONELLA TYPHIMURIUM, Strain/Indicator: TA100, Metabolic Activation: RAT, LIVER, S-9, PHENOBARBITAL AND 5,6-BENZOFLAVONE, Method: PREINCUBATION”, the mutagenic call was “active; positive”.

The values are drawn from PubChem BioAssay AID1259407 (Chemical Carcinogenesis Research Information System (CCRIS), 2018).
